Measurements from patent US9212209B2, “Screening methods for spinal muscular atrophy” (Indiana University Research and Technology Corporation, priority 2012, dated 2015).
Like-named read-outs stand apart in the source and are kept apart here.

How the values were obtained:
[1] = test system: SMN-luciferase transcripts; test: qRT-PCR of SMN-luciferase transcripts in SMN2-luc cells; format: cell-based, human; conditions: 24 hours, relative to DMSO, normalized to GAPDH, aclarubicin at 300 nM, words
Procedure: Compounds were tested at three concentrations that display maximal activity in the luciferase assay. Cells were treated as described above for the luciferase assay. Cells were harvested by trypsinization, neutralized with trypsin inhibitor, and washed. RNA was isolated from the cells using TRIZOL Reagent (Invitrogen 15596-026). cDNA was generated using the IMPROM-II Reverse Transcription System (Promega A3801).
The forward primer pair recognizes the exon 5-6 junction, which includes a restriction site that was engineered into the reporter and will exclude amplification of endogenous SMN mRNA. The reverse primers recognize either exon 7 or luciferase for detection of full-length or total SMN-luciferase transcripts respectively. For a reference control, cDNA from the housekeeping gene glyceraldehyde-3-phosphate dehydrogenase (GAPDH) was amplified. The primers used include SMN exon5-forward ([…]) (SEQ ID NO: 3), luciferase-reverse ([…]) (SEQ ID NO: 4), exon7-reverse ([…]) (SEQ ID NO: 5), GAPDH-reverse (G3A) ([…]) (SEQ ID NO: 6) and GAPDH-forward (G3S) ([…]) (SEQ ID NO: 7). qPCR was performed as described in the protocol for iQ SYBRGREEN SUPERMIX (Biorad 170-8882) using an EPPENDORF Mastercycler ep realplex^4 Thermo Cycler. Reactions were incubated for a 10 minute, 94° C. hot start followed by 45 cycles of the following: 94° C. for 45 second, 60° C. for 15 seconds, 72° C. for 45 seconds. Melting curves for each reaction were obtained. Each sample was assayed in triplicate and every plate contained a 5-point cDNA dilution course to calculate amplification efficiency for each primer pair. The Pfaffl method was used to determine the change in transcript levels relative to the DMSO and normalized to GAPDH (Pfaffl, M. W., “A new mathematical model for relative quantification in real-time RT-PCR,” Nucleic Acids Res 2001, 29(9), 3e45).
Based on the new reporter design, it was predicted that this screen could detect increased SMN-luciferase protein levels caused by compounds that stimulate SMN2 transcription, exon 7 inclusion, or by increasing the half-life of the SMN mRNA or protein. Quantitative reverse transcriptase PCR (qRT-PCR) was used to analyze SMN-luciferase mRNAs. All assays used RNA from control and compound-treated SMN2-luc cells and primers pairs were chosen to amplify only the SMN-luciferase derived transcripts (FIG. 4A). A pair of primers were used that specifically detects both full-length (exon 7 included) and Δ7 (exon 7 excluded) SMN-luciferase transcripts (primers 1 and 3). To measure changes in exon 7 splicing efficiency, a primer pair was used that detects only the full-length (exon 7 included) SMN-luciferase transcript (primers 1 and 2).
For each sample, the percent increase in the amount of total SMN-luciferase transcripts (gray bar) and exon 7 included full-length SMN-luciferase transcripts (white bar) was plotted (FIG. 4). Compounds that increase transcription should show increased total SMN-luciferase transcripts (gray bar) with a proportional increase for exon 7 included transcripts (white bar), assuming that proper splicing of exon 7 is not rate limiting. Compounds that stimulate exon 7 inclusion should increase the amount of exon 7 included full-length transcript (white bar) detected with little to no change in the expression of total SMN-luciferase transcripts (gray bar). In these experiments, cells were treated with compound, harvested, and each cell pellet was divided for isolation of RNA and to assay luciferase activity. Each qRT-PCR sample was normalized to the housekeeping gene glyceraldehyde-3-phosphate dehydrogenase (GAPDH). The Pfaffl method was used to calculate the change in the amount of total SMN mRNA and determine whether compound treatments increased SMN transcripts.

[2] = test system: SMN2-luciferase reporter; test: SMN2-luciferase reporter assay (clonal HEK-293 SMN2-luc cells); format: cell-based, human; design: % activation: concentration or dose not given beside the values; conditions: for Max. fold increase: cell-based reporter response to known SMN2 modulating compounds; for Emax: read-out: Max % Activity; for % activation: Table 5
Procedure: The reporter cell lines were plated at 50,000 cells per well in 96-well plates and incubated overnight. Compounds were added to each well and incubated at 37° C. overnight. The final DMSO concentration was 0.1%. Luciferase activity was assayed using either STEADYGLO (PROMEGA E2510) or DUALGLO (PROMEGA E2920) luciferase using the WALLAC ENVISION multilabel reader. For detailed assay conditions see Table 2A. All data points were transformed from CPS to percent increase over basal expression in the treated control wells (DMSO or H2O as appropriate).
Plates were sealed with porous paper tape and incubated for 24 hours. […] For comparison, data points were transformed from CPS to percent activation over basal expression in the DMSO treated control wells.
For comparison, all data points are expressed as percent increase over basal luciferase expression in the control cells.

[3] = Homo sapiens, HEK293, reporter assay, Table 6, read-out: Ec50
[4] = Homo sapiens, HEK293, reporter assay, Table 6

Row | SMILES | Active ([2]; reporter assay, Table 6) | also measured
1 | CCCC(CCC)C(=O)O [Valproic Acid, valproic acid] |  | exon 7 included full-length SMN-luciferase transcripts [1]: increases; total SMN-luciferase transcripts [1]: increases; exon 7 included full-length SMN-luciferase transcripts ([1]; listed as VPA): increased; total SMN-luciferase transcripts ([1]; listed as VPA): increased; EC50 ([2]; Homo sapiens, HEK293, cell-based reporter, known SMN2 modulating compounds, read-out: EC50): 10000 µM; Max. fold increase [2]: 2.5 fold
2 | CC(/C=C/C(=O)NO)=C\[C@@H](C)C(=O)c1ccc(N(C)C)cc1 [TSA] |  | exon 7 included full-length SMN-luciferase transcripts [1]: increased; total SMN-luciferase transcripts [1]: increased
3 | COc1cc2c(c(OC)c1OC)C(c1cccc3ccccc13)CC(=O)N2 (centres unmarked) [LDN-212356] | Yes | EC50 [2, 3]: 43 µM; Emax [2, 4]: 150%
4 | COC1=CC2NC(=O)CC(c3cc(NC(C)=O)ccc3F)C2C(OC)=C1OC (centres unmarked) [LDN-212360] | No | 
5 | NC[C@H]1O[C@H](O[C@H]2[C@H](O)[C@@H](O[C@H]3O[C@H](CO)[C@@H](O)[C@H](N)[C@H]3O)[C@H](N)C[C@@H]2N)[C@H](N)C[C@@H]1O [Tobramycin, tobramycin, reference compound] |  | response of luciferase activity in the reporter cell lines ([2]; SMN1-luc and SMN2-luc cell lines, words): no response; Max. fold increase [2]: inactive ^a; EC50 ([2]; cell-based reporter, result in words): inactive ^a
6 | CC(C)c1cc(C(=O)Nc2ccc3ccccc3c2)no1 [LDN-211826] | Yes | EC50 [2, 3]: 1.1 µM; Emax [2, 4]: 150%
7 | Cc1cc(NC(=O)C2=NOC(C)C2)no1 (centres unmarked) [CAL-3] | No | 
8 | O=C(c1cc(C2CC2)on1)N1CCCc2ccccc21 [CAL-36] | No | 
9 | O=C(Nc1cc(C2(O)CCC2)ccn1)c1ccc(F)c(Cl)c1 [LDN-212256] | Yes | EC50 [2, 3]: 0.4 µM; Emax [2, 4]: 114%
10 | COc1cc2c(c(OC)c1OC)C(c1cc(Cl)ccc1F)C(C)C(=O)N2 (centres unmarked) [LDN-214085] | Yes | EC50 [2, 3]: 6 µM; Emax [2, 4]: 180%
11 | CC(C)(C)c1c[nH]c(NC(=O)c2ccc(F)c(Cl)c2)n1 [LDN-212012] | No | 
12 | CC(C)c1nc(C(=O)Nc2ccc(F)c(Cl)c2)co1 [LDN-212015] | Yes | EC50 [2, 3]: 1.7 µM; Emax [2, 4]: 100%
13 | CC(C)c1cc(C(=O)Nc2ccc(F)c(Cl)c2)n[nH]1 [LDN-211830] | No | 
14 | CC(C)c1cc(C(=O)Nc2ccc(F)c(Cl)c2)n(C)n1 [LDN-211857] | No | 
15 | Cc1ccc(C(=O)Nc2cc(C(C)(C)C)on2)cc1C [LDN-211912] | Yes | EC50 [2, 3]: 1.1 µM; Emax [2, 4]: 150%
16 | CC(C)c1cc(C(=O)NCc2ccc(F)c(Cl)c2)no1 [LDN-211834] | No | 
17 | COCCOc1c(OC)cc2c(c1OC)C(c1cc(Cl)ccc1F)CC(=O)N2 (centres unmarked) [LDN-213772] | No | 
18 | COc1cc2c(c(OC)c1OC)C(c1cccc(-c3ccccc3)c1)CC(=O)N2 (centres unmarked) [LDN-212267] | No | 
19 | COc1cc2c(c(OC)c1OC)C(c1ccccc1F)CC(=O)N2 (centres unmarked) [CAL-22] | No | 
20 | CCOC(=O)C1C(=O)Nc2cc(OC)c(OC)c(OC)c2C1c1cc(Cl)ccc1F (centres unmarked) [LDN-212388] | No | 
21 | CC(C)(C)C(=O)Nc1nc(COc2ccccc2)cs1 [Compound 109981] |  | % activation ([2]; reporter assay): 98%
22 | N#Cc1ccsc1NC(=O)CCc1ccccc1 [Compound 110425] |  | % activation ([2]; reporter assay): 93%
23 | CC(C)c1cc(C(=O)Nc2ccc3c(c2)OCO3)no1 [LDN-75676] | Yes | EC50 [2, 3]: 2.6 µM; Emax [2, 4]: 337%; % activation ([2]; reporter assay): 136%
24 | COc1ccc2c(c1OC)C(c1cc(Br)ccc1F)CC(=O)N2 (centres unmarked) [CAL-23] | No | 
25 | COc1cc2c(c(OC)c1OC)C(c1cccc(Cl)c1Cl)CC(=O)N2 (centres unmarked) [CAL-56] | No | 

Row | SMILES | Active ([2]; reporter assay, Table 6) | also measured
26 | COc1cc2c(c(OC)c1OC)C(c1ccc(F)c(F)c1)CC(=O)N2 (centres unmarked) [CAL-57] | No | 
27 | CC(C)(C)c1cc(NC(=O)c2ccc3ccccc3n2)no1 [LDN-211908] | No/Weak | 
28 | COc1cc2c(c(OC)c1OC)C(c1coc3ccccc13)CC(=O)N2 (centres unmarked) [LDN-212389] | No/Weak | 
29 | O=C(Nc1ccc(F)c(Cl)c1)c1cc(C2CCCC2)on1 [LDN-211828] | Yes | EC50 [2, 3]: 20 µM; Emax [2, 4]: 100%
30 | COc1cc2c(c(OC)c1OC)C(c1cccc3ccccc13)CC(=O)N2 (centres unmarked) [LDN-212355] | No/Weak | 
31 | CC1CC(C(=O)Nc2ccc(F)c(Cl)c2)=NO1 (centres unmarked) [CAL-8] | Weak | EC50 [2, 3]: 10 µM; Emax [2, 4]: 120%
32 | COc1cc2c(c(OC)c1OC)C(c1ccnc(Cl)c1)CC(=O)N2 (centres unmarked) [LDN-212393] | No/Weak | 
33 | O=C(Nc1ccc(F)c(Cl)c1)c1cc(C2CCCCC2)on1 [LDN-211829] | No/Weak | 
34 | Cc1ccc(-c2cc(-c3ccccc3Cl)[nH]n2)c(O)c1 [Compound 72939] |  | % activation ([2]; reporter assay): 102%
35 | COc1cc2[nH]c(=O)cc(-c3cc(Br)ccc3F)c2c(OC)c1OC [LDN-212265] | No | 
36 | O=C1CC(c2cc(Br)ccc2F)c2c(ccc3ccccc23)N1 (centres unmarked) [LDN-212352] | No | 
37 | O=C(Nc1ccc(F)c(Cl)c1)c1noc(C2CC2)c1[N+](=O)[O-] [CAL-38] | No | 
38 | Cc1c(C(=O)NCCC(C)C)oc2ccc3c(c12)C(O)CC(C)(C)O3 (centres unmarked) [Compound 79199] |  | % activation ([2]; reporter assay): 102%
39 | COc1cc2c(c(OC)c1)C(c1c(Cl)cccc1Cl)CC(=O)N2 (centres unmarked) [LDN-76515] | No | 
40 | COc1cc2c(c(OC)c1OC)C(c1cc(Cl)ccc1F)NC(=O)N2 (centres unmarked) [LDN-213767] | Yes | Max % Activity ([2]; reporter assay, Table 6): 125%; EC50 ([2]; reporter assay, Table 6, read-out: Ec50): 8.4 µM
41 | COc1cc2c(c(OC)c1OC)C(c1cc(F)ccc1F)CC(=O)N2 (centres unmarked) [LDN-212353] | No/Weak | 
42 | O=C(Nc1ccc(F)c(Cl)c1)C1=NOC(C2CC2)C1 (centres unmarked) [CAL-10] | Yes | EC50 [2, 3]: 2 µM; Emax [2, 4]: 250%
43 | C=C1CC(c2cccc3ccccc23)c2c(cc(OC)c(OC)c2OC)N1 (centres unmarked) [LDN-212350] | No/Weak | 
44 | COc1cc2c(c(OC)c1OC)C(c1cc(Cl)ccc1F)C(C)C(=O)N2 (centres unmarked) [LDN-213773] | No | 
45 | COc1cc2c(c(OC)c1)C(c1cc(Br)ccc1F)CC(=O)N2 (centres unmarked) [LDN-212264] | No | 
46 | CC(C)(C)c1cc(NC(=O)c2cc3ccccc3o2)no1 [LDN-211909] | No/Weak | 
47 | CCCC1C(=O)Nc2cc(OC)c(OC)c(OC)c2C1c1cc(Cl)ccc1F (centres unmarked) [LDN-214096] | No | 
48 | O=C(Nc1ccc(F)c(Cl)c1)c1cc(Cc2ccccc2)on1 [LDN-211855] | Yes | EC50 [2, 3]: 1.5 µM; Emax [2, 4]: 125%
49 | COc1cc2c(c(OC)c1OCCN1CCOCC1)C(c1cc(Cl)ccc1F)CC(=O)N2 (centres unmarked) [LDN-213770] | No | 
50 | O=C(Nc1nnc(-c2ccccc2)s1)c1ccc(F)c(Cl)c1 [LDN-211982] | No | 
